Source: ChEMBL document CHEMBL2375345, “New antiprotozoal agents: their synthesis and biological evaluations” (Bioorg Med Chem Lett, 2013)
pIC50: −log10 of the molar value.

Legend:
Trypanosoma cruzi [1] = test: Antiprotozoal activity against trypomastigote form of Trypanosoma cruzi Colombian infected in BALB/c mouse assessed as decrease in parasitemia at 100 mg/kg, po administered for 1 week followed by weekly administration measured after 8 months; conditions: 168 h
Trypanosoma cruzi [2] = test: Trypanocidal activity against Trypanosoma cruzi
[3] = tested on: Trypanosoma brucei rhodesiense; test: Antiprotozoal activity against trypomastigote form of Trypanosoma brucei rhodesiense STIB900 assessed as parasite growth inhibition after 72 hrs by Alamar blue assay; assay type: functional, organism-based; conditions: STIB900, 72 h
[4] = Selectivity index, ratio of CC50 for human MRC5 cells to IC50 for trypomastigote form of Trypanosoma brucei brucei 427; assay type: functional
[5] = Cytotoxicity against human MRC5 cells assessed as cell viability after 7 days by Alamar blue assay; assay type: cell-based
[6] = Selectivity index, ratio of CC50 for human MRC5 cells to IC50 for amastigote form of Leishmania infantum MHOM/MA(BE)/67; assay type: functional
Trypanosoma cruzi [7] = test: Antiprotozoal activity against epimastigote form of Trypanosoma cruzi Tulahuen 2 assessed as parasite growth inhibition measured at day 5; assay type: functional, organism-based; conditions: Tulahuen 2, 120 h
Leishmania infantum = test: Antiprotozoal activity against amastigote form of Leishmania infantum MHOM/MA(BE)/67 infected in mouse peritoneal macrophages assessed as reduction of intracellular parasite burden after 5 days by Giemsa staining method; assay type: functional, organism-based; conditions: MHOM/MA(BE)/67, 120 h
[8] = Cytotoxicity against mouse peritoneal macrophages; assay type: cell-based; conditions: peritoneal macrophage cell
[9] = Selectivity index, ratio of CC50 for human MRC5 cells to IC50 for trypomastigote form of Trypanosoma brucei rhodesiense STIB900; assay type: functional
[10] = tested on: Trypanosoma brucei brucei; test: Antiprotozoal activity against trypomastigote form of Trypanosoma brucei brucei 427 assessed as parasite growth inhibition; assay type: functional, organism-based
[11] = Selectivity index, ratio of CC50 for human MRC5 cells to IC50 for epimastigote form of Trypanosoma cruzi Tulahuen 2; assay type: functional
Leishmania donovani = test: Antiprotozoal activity against […] form of Leishmania donovani infected in primary macrophages assessed as reduction in intracellular parasite level after 90 mins by Giemsa staining method; assay type: functional, organism-based; conditions: 1.5 h
[12] = Lipophilicity, log P of the compound; assay type: physicochemical; conditions: octanol/water

Compound | pIC50 (Trypanosoma cruzi [1]) | pIC50 (Trypanosoma cruzi [2]) | pIC50 [3] | Ratio CC50/IC50 [4] | CC50 at 168 h [5] | Ratio CC50/IC50 [6] | pIC50 (Trypanosoma cruzi [7]) | pIC50 (Leishmania infantum) | Activity [8] | Ratio CC50/IC50 [9] | pIC50 [10] | Ratio CC50/IC50 [11] | pIC50 (Leishmania donovani) | logP [12]
O=C(Cn1ccnc1[N+](=O)[O-])NCc1ccccc1 [BENZNIDAZOLE] | 5.44 | – | – | – | – | – | – | – | – | – | – | – | – | –
CC1CS(=O)(=O)CCN1/N=C/c1ccc([N+](=O)[O-])o1 (stereo not given) [NIFURTIMOX] | – | 5.74 | – | – | – | – | – | – | – | – | – | – | – | –
O=[N+]([O-])c1ccc2nc(Oc3ccc(F)cc3C(O)Cn3ccnc3)c(Cc3ccccc3)cc2c1 (stereo not given) | – | – | 5.74 | 14.42 | 31.4 µM | 12.47 | 6.60 | 5.60 | Non-toxic | 17.37 | 5.66 | 125.76 | – | –
C[C@@H]1[C@H](O)[C@@H](C)/C=C/C=C/C=C/C=C/C=C/C=C/C=C/[C@H](O[C@@H]2O[C@H](C)[C@@H](O)[C@H](N)[C@@H]2O)C[C@@H]2O[C@](O)(C[C@@H](O)C[C@@H](O)[C@H](O)CC[C@@H](O)C[C@@H](O)CC(=O)O[C@H]1C)C[C@H](O)[C@H]2C(=O)O [AMPHOTERICIN B] | – | – | – | – | – | – | – | – | – | – | – | – | 6.60 | –
CCCCC(=O)OC1(C)c2ccccc2-c2c1c(-n1ccnc1)nc1ccc(Br)cc21 (stereo not given) | – | – | 5.24 | 2.68 | 21.8 µM | 3.84 | 5.84 | 5.25 | – | 3.74 | 5.09 | 14.91 | – | 5.58
COc1nc2ccc(Br)cc2c2c1C(C)(OCC(O)CN)c1ccccc1-2 (stereo not given) | – | – | 6.60 | 5.44 | 1.36 µM | 3.4 | 6.33 | 6.40 | Non-toxic | 5.44 | 6.60 | 2.89 | – | 3.46
CC1(O)c2ccccc2-c2c1c(OCC(F)(F)F)nc1ccc(Br)cc21 (stereo not given) | – | – | 5.49 | 2.41 | 19.8 µM | 2.48 | 5.16 | 5.10 | – | 6.14 | 5.08 | 2.86 | – | 5.71
COc1ccccc1NC(=O)Nc1ccc2nc(Oc3ccc(F)cc3C(C)O)c(Cc3ccccc3)cc2c1 (stereo not given) | – | – | 6.60 | 9.55 | 6.21 µM | – | 5.54 | 5.50 | Non-toxic | – | 6.19 | 2.16 | – | 6.72
COc1nc2ccc(Br)cc2c2c1C(C)(OCC(O)CN1CCN(Cc3ccccc3)CC1)c1ccccc1-2 (mixture of isomers) | – | – | 5.70 | 2.51 | 5.63 µM | 0.59 | 5.14 | 5.02 | – | 2.83 | 5.65 | 0.77 | – | 5.85
COc1nc2ccc(Br)cc2c2c1C(C)(OC(=O)N(C)C)c1ccccc1-2 (stereo not given) | – | – | 5.28 | 7.77 | 64 µM | 1 | 5.13 | 4.19 | – | 12.12 | 5.08 | 8.62 | – | 4.91
O=C1c2ccccc2-c2c1c(Nc1ccncc1)nc1ccc(Br)cc21 | – | – | 6.60 | 1.34 | 0.75 µM | 0.15 | 6.60 | 5.29 | Non-toxic | 3 | 6.25 | 3 | – | 4.64
CC1(OCC2CO2)c2ccccc2-c2c1c(C(F)(F)F)nc1ccc(Br)cc21 (stereo not given) | – | – | 5.26 | 0.47 | 4 µM | 0.14 | 5.08 | 4.56 | – | 0.73 | 5.07 | 0.48 | – | 5.23
CC(O)c1cc(F)ccc1Oc1nc2ccc(NC(=O)Nc3cccc([N+](=O)[O-])c3)cc2cc1Cc1ccccc1 (stereo not given) | – | – | 6.60 | 4.31 | 2.2 µM | 1.29 | 6.00 | 5.77 | Non-toxic | 8.8 | 6.29 | 2.15 | – | 6.84
COc1nc2ccc(Br)cc2cc1C(c1ccccc1)n1ccnc1 (stereo not given) | – | – | 5.07 | 0.943 | 30.8 µM | 1.21 | 6.34 | 4.60 | – | 3.65 | 4.49 | 67.02 | – | 4.52
O/N=C1\c2ccccc2-c2c1c(N1CCN(c3ccccn3)CC1)nc1ccc(Br)cc21 | – | – | 5.58 | 7.34 | 64 µM | 6.73 | 5.15 | 5.02 | – | 24.52 | 5.09 | 9.13 | – | 6.4
